Measured values reported in patent US10442788B2, “Hepatitis B antiviral agents” (ENANTA PHARMACEUTICALS, INC., priority 2015, dated 2019).

Test system: HBV
Experiment: HepAD38 antiviral assay: reduction of viral product accumulation (virion DNA by qPCR, HBsAg or HBeAg by ELISA)
Type: cell-based
Settings: Hepatitis B virus, 120 h; HepAD38 cells, five days after compound addition; 50% reduction of viral product accumulation relative to no drug controls; read-out: HepAD38 EC50
Experimental: Methods: HepAD38 cells are maintained as previously reported (Ladner et al, Antimicrob. Agents Chemother. 1997, […], 1715). Briefly, cells are passaged upon attaining confluency in DMEM/F12 media in the presence of 10% FBS, Penn/Strep, 250 μg/mL G418, and 1 ug/ml tetracycline. Novel compounds are screened by first washing cells three times with PBS to remove tetracycline, and plating in 96 well plates at 35,000 cells/well. Compounds dissolved in DMSO are then diluted 1:200 into wells containing cells. Five days after compound addition, material is harvested for analysis. For an extended 8 day analysis, cells are plated and treated as described above, but media and compound are refreshed on d2 and d5 post initial treatment.
On harvest day, virion DNA is obtained by lysing with Sidestep Lysis and Stabilization Buffer and then quantified via quantitative real time PCR. Commercially available ELISA kits are used to quantitate the viral proteins HBsAg (Alpco) or HbeAg (US Biological) by following the manufacturer's recommended protocol after diluting samples to match the linear range of their respective assays. Irrespective of readout, compound concentrations that reduce viral product accumulation in the cell lysates or supernatants by 50% relative to no drug controls (EC50) are reported; EC50 ranges are as follows: A<1 μM; B 1-10 μM; C>10 μM.

SMILES	EC50
O=S(=O)(c1cc(-c2nc(-c3ccc(Br)c(F)c3)c[nH]2)ccc1Cl)N1CCN(c2ccncc2)CC1 [Example 196]	< 1000 nM
O=S(=O)(c1cc(-c2nc(-c3ccc(F)c(Br)c3)c(F)[nH]2)ccc1Cl)N1CCC(O)CC1 [Example 197]	< 1000 nM
CC(C)(C)OC(=O)N[C@H]1C[C@H](NS(=O)(=O)c2cc(-c3nc(-c4ccc(Br)c(F)c4)c[nH]3)ccc2Cl)C1 [Example 198]	< 1000 nM
CC(C)(C)OC(=O)NCC1CCN(S(=O)(=O)c2cc(-c3nc(-c4ccc(Br)c(F)c4)c[nH]3)ccc2Cl)C1 (stereo not shown) [Example 199]	< 1000 nM
CN(C)CC(=O)NCCCNS(=O)(=O)c1cc(-c2nc(-c3ccc(Br)c(F)c3)c[nH]2)ccc1Cl [Example 200]	1000 to 10000 nM
COC(=O)NCC(=O)NCCCNS(=O)(=O)c1cc(-c2nc(-c3ccc(Br)c(F)c3)c[nH]2)ccc1Cl [Example 201]	1000 to 10000 nM
COc1ccc(-c2c[nH]c(-c3ccc(Cl)c(S(=O)(=O)N4CCC(O)CC4)c3)n2)cc1Cl [Example 202]	> 10000 nM
[2H]C([2H])([2H])Oc1cccc(-c2c[nH]c(-c3ccc(Cl)c(S(=O)(=O)N4CCC(O)CC4)c3)n2)c1 [Example 203]	> 10000 nM
[2H]C([2H])([2H])Oc1cc(-c2c[nH]c(-c3ccc(Cl)c(S(=O)(=O)N4CCC(O)CC4)c3)n2)ccc1F [Example 204]	< 1000 nM
O=S(=O)(c1cc(-c2nc(-c3ccc(Br)c(F)c3)c[nH]2)ccc1Cl)N1CCN(c2cc(F)ccn2)CC1 [Example 205]	< 1000 nM
O=C(Nc1ccccc1)N1CCN(S(=O)(=O)c2cc(-c3nc(-c4ccc(Br)c(F)c4)c[nH]3)ccc2Cl)CC1 [Example 206]	> 10000 nM
O=P(O)(O)OC1CCN(S(=O)(=O)c2cc(-c3nc(-c4ccc(F)c(Br)c4)c[nH]3)ccc2Cl)CC1 [Example 207]	1000 to 10000 nM
C[C@@H]1CN(S(=O)(=O)c2cc(-c3ncc(-c4ccc(Br)c(F)c4)[nH]3)ccc2Cl)CC[C@H]1O [Example 208]	< 1000 nM
CC1CC(O)CCN1S(=O)(=O)c1cc(-c2ncc(-c3ccc(Br)c(F)c3)[nH]2)ccc1Cl (stereo not shown) [Example 209]	< 1000 nM
CC(C)(O)C1CN(S(=O)(=O)c2cc(-c3ncc(-c4ccc(Br)c(F)c4)[nH]3)ccc2Cl)C1 [Example 210]	< 1000 nM
O=S(=O)(N[C@H]1C[C@@H](O)C1)c1cc(-c2ncc(-c3ccc(Br)c(F)c3)[nH]2)ccc1Cl [Example 211]	< 1000 nM
O=S(=O)(N[C@H]1CC[C@H](O)CC1)c1cc(-c2ncc(-c3ccc(Br)c(F)c3)[nH]2)ccc1Cl [Example 212]	< 1000 nM
O=S(=O)(NC[C@H](O)CO)c1cc(-c2ncc(-c3ccc(Br)c(F)c3)[nH]2)ccc1Cl [Example 213]	< 1000 nM
O=S(=O)(NC[C@@H](O)CO)c1cc(-c2ncc(-c3ccc(Br)c(F)c3)[nH]2)ccc1Cl [Example 214]	< 1000 nM
O=S(=O)(NCCCCc1nnn[nH]1)c1cc(-c2nc(-c3ccc(Br)c(F)c3)c[nH]2)ccc1Cl [Example 215]	> 10000 nM
COc1cc(-c2c[nH]c(-c3ccc(Cl)c(S(=O)(=O)N4CCC(O)CC4)c3)n2)ccc1Cl [Example 216]	< 1000 nM
[2H]C([2H])([2H])Oc1ccc(-c2c[nH]c(-c3ccc(Cl)c(S(=O)(=O)N4CCC(O)CC4)c3)n2)cc1 [Example 217]	1000 to 10000 nM
O=S(=O)(c1cc(-c2nc(-c3ccc(Br)c(F)c3)c[nH]2)ccc1Cl)N1CCN(c2ccc(F)cn2)CC1 [Example 219]	< 1000 nM
O=S(=O)(c1cc(-c2nc(-c3ccc(Br)c(F)c3)c[nH]2)ccc1Cl)N1CCC(c2ccccn2)CC1 [Example 220]	< 1000 nM
O=S(=O)(c1cc(-c2nc(-c3ccc(Br)c(F)c3)c[nH]2)ccc1Cl)N1CC=C(c2ccccn2)CC1 [Example 221]	1000 to 10000 nM

SMILES	EC50
O=S(=O)(c1cc(-c2nc(-c3ccc(Br)c(F)c3)c[nH]2)ccc1Cl)N1CCN(S(=O)(=O)C2CC2)CC1 [Example 222]	> 10000 nM
O=S(=O)(NC1CC(O)C1)c1cc(-c2ncc(-c3ccc(Br)c(F)c3)[nH]2)ccc1Cl (stereo not shown) [Example 223]	1000 to 10000 nM
CC(C)(O)CNS(=O)(=O)c1cc(-c2ncc(-c3ccc(Br)c(F)c3)[nH]2)ccc1Cl [Example 224]	< 1000 nM
CC(C)(O)CCNS(=O)(=O)c1cc(-c2ncc(-c3ccc(Br)c(F)c3)[nH]2)ccc1Cl [Example 225]	< 1000 nM
O=S(=O)(c1cc(-c2ncc(-c3ccc(Br)c(F)c3)[nH]2)ccc1Cl)N1CCC[C@H](O)C1 [Example 226]	< 1000 nM
O=S(=O)(N[C@H]1CC[C@@H](O)CC1)c1cc(-c2ncc(-c3ccc(Br)c(F)c3)[nH]2)ccc1Cl [Example 227]	< 1000 nM
O=S(=O)(c1cc(-c2ncc(-c3ccc(Br)c(F)c3)[nH]2)ccc1Cl)N1C[C@@H](O)[C@@H](O)C1 [Example 228]	< 1000 nM
O=S(=O)(c1cc(-c2ncc(-c3ccc(Br)c(F)c3)[nH]2)ccc1Cl)N1C[C@@H](O)[C@H](O)C1 [Example 229]	< 1000 nM
O=S(=O)(c1cc(-c2ncc(-c3ccc(Br)c(F)c3)[nH]2)ccc1Cl)N1CC[C@H](O)[C@H](O)C1 [Example 230]	< 1000 nM
O=S(=O)(c1cc(-c2ncc(-c3ccc(Br)c(F)c3)[nH]2)ccc1Cl)N1CC[C@H](O)[C@@H](O)C1 [Example 231]	< 1000 nM
O=S(=O)(c1cc(-c2nc(-c3ccc(Br)c(F)c3)c[nH]2)ccc1Cl)N1CCCC[C@H](O)C1 [Example 232]	< 1000 nM
O=S(=O)(c1cc(-c2nc(-c3ccc(Br)c(F)c3)c[nH]2)ccc1Cl)N1CCCC[C@@H](O)C1 [Example 233]	< 1000 nM
O=S(=O)(c1cc(-c2nc(-c3ccc(Br)c(F)c3)c[nH]2)ccc1Cl)N1CCC[C@@H](O)CC1 [Example 234]	< 1000 nM
O=S(=O)(c1cc(-c2nc(-c3ccc(Br)c(F)c3)c[nH]2)ccc1Cl)N1CCC[C@H](O)CC1 [Example 235]	< 1000 nM
COC(=O)NCCCN(CCCO)S(=O)(=O)c1cc(-c2nc(-c3ccc(Br)c(F)c3)c[nH]2)ccc1Cl [Example 236]	< 1000 nM
O=S(=O)(NCCCNc1ncco1)c1cc(-c2nc(-c3ccc(Br)c(F)c3)c[nH]2)ccc1Cl [Example 237]	< 1000 nM
O=S(=O)(c1cc(-c2nc(-c3ccc(CC(F)(F)F)cc3)c[nH]2)ccc1Cl)N1CCC(O)CC1 [Example 238]	> 10000 nM
O=S(=O)(c1cc(-c2nc(-c3cccc(CC(F)(F)F)c3)c[nH]2)ccc1Cl)N1CCC(O)CC1 [Example 239]	> 10000 nM
COC1CCCCC1N1CCN(S(=O)(=O)c2cc(-c3nc(-c4ccc(Br)c(F)c4)c[nH]3)ccc2Cl)CC1 (stereo not shown) [Example 240]	< 1000 nM
COC(=O)NCCCCCCNS(=O)(=O)c1cc(-c2nc(-c3ccc(Br)c(F)c3)c[nH]2)ccc1Cl [Example 241]	< 1000 nM
CC(C)(C)OC(=O)NCCCCCCNS(=O)(=O)c1cc(-c2nc(-c3ccc(Br)c(F)c3)c[nH]2)ccc1Cl [Example 242]	< 1000 nM
O=S(=O)(c1cc(-c2ncc(-c3ccc(Br)c(F)c3)[nH]2)ccc1Cl)N1C[C@@H]2[C@@H](O)[C@@H]2C1 [Example 243]	< 1000 nM
C[C@@H]1CCN(S(=O)(=O)c2cc(-c3nc(-c4ccc(Br)c(F)c4)c[nH]3)ccc2Cl)C[C@@H]1O [Example 244]	< 1000 nM
C[C@H]1CCN(S(=O)(=O)c2cc(-c3nc(-c4ccc(Br)c(F)c4)c[nH]3)ccc2Cl)C[C@@H]1O [Example 245]	< 1000 nM
